Measured values reported in US8936793B2, “Synthetic archaeal glycolipid adjuvants” (National Research Council of Canada, priority 2006, dated 2015).

Columns and labels:
[1] = tested on: antigen specific EG.7 targets; test: CTL activity in splenocytes of immunized mice, Cr51-assay; type: in vivo, C57BL/6 mice; settings: 15 μg OVA s.c. 0 and 3 weeks; spleens 7 weeks after first immunization
Procedure: To determine adjuvant activity, various synthetic archaeosomes with OVA entrapped (OVA-archaeosomes) were used to immunize female C57BL/6 mice on days 0 and 21 (6-8 weeks old on first injection). Injections were subcutaneous at the tail base with 0.1 ml PBS containing 15 μg OVA entrapped in 0.2-0.63 mg lipids. Blood samples were collected from the tail vein for anti-OVA IgG/IgM antibody titration done by ELISA (13). In some cases faecal extracts were assayed for IgA (and IgG) to assess mucosal responses following systemic immunizations. Fresh faeces (about 30 mg dry weight) were collected from 4 mice/group, and extracted by adding 0.5 ml of phosphate buffered saline (pH 7.0) containing 10% fetal calf serum and 0.1% sodium azide. Homogenized samples were centrifuged and Elisa measured anti OVA antibody in supernatants. Spleens were collected to determine CTL activity using the Cr^51-assay with specific and non-specific targets EG.7 and EL-4, respectively (14). In Elispot assays antigen-specific CD8^+ T cell activity was measured in splenic cells from immunized mice by determining the number of SIINFEKL stimulated IFN-γ-secreting cells per 5×10^5 splenic cells (15).

[2] = tested on: antigen-specific CD8+ T cell; test: Antigen-specific CD8+ T cell activity in blood by tetramer assay; type: in vivo, C57BL/6J mice; settings: glyco-archaeol/DPPG/chol (25/55/20, mol %); data not shown
Procedure: Mice vaccinated with synthetic archaeosomes containing an appropriate antigen were protected from infection (FIG. 13). […] The lower CD8^+ T cell response observed for this latter archaeosome previously appears to be in part due to the shorter period from first injection to assay in FIG. 7C. In this example (FIG. 13), the antigen-specific CD8^+ T cell activity was measured in blood by tetramer assay and found to be about 30% as high in the maltotriose-A group compared to the gentiotriose-A group (data not shown).

[3] = tested on: Listeria monocytogenes (LM)-OVA construct; test: Protection against LM-OVA challenge after vaccination, splenic CFU; type: in vivo; settings: glyco-archaeol/DPPG/chol (25/55/20, mol %), FIG. 13
Procedure: FIG. 13 illustrates protection against LM-OVA challenge after vaccination with OVA-adjuvant combinations. C57BL/6J mice were immunized on day 0 and 21 with 15 ug OVA entrapped in various synthetic archaeosomes composed of the respective synthetic glyco-archaeol/DPPG/chol (25/55/20, mol %). At 8 weeks, mice were challenged with 10^4 intravenous dose of Listeria monocytogenes (LM)-OVA construct. Mice were euthanized 3 days later. Mean±SEM of splenic colony forming units (CFU) is shown for each group.

Macrophages J774A.1 = test: Up-regulation of co-stimulatory molecule CD80 on APCs, flow cytometry; type: cell-based; settings: 25 μg liposomes or archaeosomes 48 h; LPS 10 μg 24 h; anti-CD80-PE
Procedure: Macrophages J774A.1 were incubated for 48 h with 25 μg of archaeosomes prior to staining and analysis by flow cytometry (Table 13). […] Immuno-activity was clearly ascribed to the synthetic glyco-archaeal lipid.

CC(C)CCC[C@@H](C)CCC[C@@H](C)CCC[C@@H](C)CCOC[C@H](CO[C@@H]1O[C@H](CO)[C@@H](O[C@H]2O[C@H](CO)[C@@H](O[C@H]3O[C@H](CO)[C@@H](O)[C@H](O)[C@H]3O)[C@H](O)[C@H]2O)[C@H](O)[C@H]1O)OCC[C@H](C)CCC[C@H](C)CCC[C@H](C)CCCC(C)C [maltotriose-A]
CTL adjuvant activity, FIG. 3 [1]: best adjuvant activity | antigen-specific CD8+ T cell activity in blood, % as high as the gentiotriose-A group [2]: about 30% | protection from LM-OVA infection [3]: striking protection

Lipopolysaccharide
Mean fluorescence Intensity CD80 (Macrophages J774A.1): 33.2
